Results as given in ChEMBL document CHEMBL2434908, “Synthesis and antibacterial evaluation of 3,3-diindolylmethane derivatives” (Med Chem Res, 2013).
Converted amounts (≈) assume the structure as drawn.

What was measured:
[1] = tested on: Staphylococcus aureus; experiment: Antibacterial activity against Staphylococcus aureus assessed as growth inhibition by agar plate method; type: functional
[2] = Hemolytic activity in human RBC up to 200 ug/mL after 1 hr by spectrophotometric analysis relative to control; type: ADME, cell-based, Erythrocyte; conditions: human red blood cells, read-out: Activity
[3] = tested on: Bacillus subtilis; experiment: Antibacterial activity against Bacillus subtilis assessed as growth inhibition by agar plate method; type: functional
[4] = tested on: Arthrobacter protophormiae; experiment: Antibacterial activity against Arthrobacter protophormiae assessed as growth inhibition by agar plate method; type: functional; conditions: Glutamicibacter protophormiae
[5] = tested on: Shigella flexneri; experiment: Antibacterial activity against Shigella flexneri assessed as growth inhibition by agar plate method; type: functional
[6] = tested on: Lactococcus lactis; experiment: Antibacterial activity against Lactococcus lactis assessed as growth inhibition by agar plate method; type: functional
[7] = tested on: Escherichia coli; experiment: Antibacterial activity against Escherichia coli assessed as growth inhibition by agar plate method; type: functional
[8] = tested on: Mycolicibacterium smegmatis; experiment: Antibacterial activity against Mycobacterium smegmatis assessed as growth inhibition by agar plate method; type: functional
[9] = tested on: Rhodococcus; experiment: Antibacterial activity against Rhodococcus Sp. assessed as growth inhibition by agar plate method; type: functional
[10] = tested on: Pseudomonas aeruginosa; experiment: Antibacterial activity against Pseudomonas aeruginosa assessed as growth inhibition by agar plate method; type: functional
[11] = tested on: Proteus mirabilis; experiment: Antibacterial activity against Proteus mirabilis assessed as growth inhibition by agar plate method; type: functional
[12] = Hemolytic activity in human RBC at 12.5 ug/mL after 1 hr by spectrophotometric analysis relative to control; type: ADME, cell-based, Erythrocyte; conditions: human red blood cells, read-out: Activity
[13] = Hemolytic activity in human RBC up to 400 ug/mL after 1 hr by spectrophotometric analysis relative to control; type: ADME, cell-based, Erythrocyte

Row | MIC [1] [µg/mL] | MIC [3] [µg/mL] | MIC [4] [µg/mL] | MIC [5] [µg/mL] | MIC [6] [µg/mL] | MIC [7] [µg/mL] | MIC [8] [µg/mL] | MIC [9] [µg/mL] | MIC [10] [µg/mL] | MIC [11] [µg/mL] | SMILES | hemolysis at 1 h [2] [%] | hemolysis at 1 h, 12.5 ug/mL [12] [%] | hemolysis at 1 h ([13]; human red blood cells, read-out: Activity) [%] | Activity ([13]; erythrocyte, 1 h)
1 | 15.5 (≈ 45.8 µM) | 15.5 (≈ 45.8 µM) | 15.5 (≈ 45.8 µM) | 15.5 (≈ 45.8 µM) | 31.2 (≈ 92.2 µM) | 15.5 (≈ 45.8 µM) | 6.5 (≈ 19.2 µM) | 7.5 (≈ 22.2 µM) | 62.5 (≈ 185 µM) | 15.5 (≈ 45.8 µM) | Oc1ccccc1C(c1c[nH]c2ccccc12)c1c[nH]c2ccccc12 | 20 |  |  | 
2 | 125 (≈ 400 µM) | 125 (≈ 400 µM) | 31.2 (≈ 99.9 µM) | 31.2 (≈ 99.9 µM) | 62.5 (≈ 200 µM) | 62.5 (≈ 200 µM) | 15.5 (≈ 49.6 µM) | 31.2 (≈ 99.9 µM) | 31.2 (≈ 99.9 µM) | 31.2 (≈ 99.9 µM) | c1coc(C(c2c[nH]c3ccccc23)c2c[nH]c3ccccc23)c1 |  | 50 |  | 
3 | > 500 | > 500 | > 500 | > 500 | > 500 | > 500 | > 500 | > 500 | > 500 | > 500 | CN(C)c1ccc(C(c2c[nH]c3ccccc23)c2c[nH]c3ccccc23)cc1 |  |  |  | 
4 | 32.2 (≈ 99.6 µM) | 15.5 (≈ 47.9 µM) | 15.5 (≈ 47.9 µM) | 15.5 (≈ 47.9 µM) | 15.5 (≈ 47.9 µM) | 31.2 (≈ 96.5 µM) | 31.2 (≈ 96.5 µM) | 6.5 (≈ 20.1 µM) | 31.2 (≈ 96.5 µM) | 15.5 (≈ 47.9 µM) | c1cncc(C(c2c[nH]c3ccccc23)c2c[nH]c3ccccc23)c1 | 20 |  |  | 
5 | > 500 | > 500 | > 500 | > 500 | > 500 | > 500 | > 500 | > 500 | > 500 | > 500 | OC[C@@H](O)[C@H](O)[C@H](O)[C@@H](O)C(c1c[nH]c2ccccc12)c1c[nH]c2ccccc12 |  |  |  | 
6 | 62.5 (≈ 171 µM) | 125 (≈ 341 µM) | 62.5 (≈ 171 µM) | 31.2 (≈ 85.1 µM) | 62.5 (≈ 171 µM) | 62.5 (≈ 171 µM) | 31.2 (≈ 85.1 µM) | 15.5 (≈ 42.3 µM) | 62.5 (≈ 171 µM) | 31.2 (≈ 85.1 µM) | OC[C@@H](O)[C@@H](O)[C@@H](O)C(c1c[nH]c2ccccc12)c1c[nH]c2ccccc12 |  |  | 15 | 
7 | > 500 | > 500 | > 500 | > 500 | > 500 | > 500 | > 500 | > 500 | > 500 | > 500 | OC[C@@H](O)[C@@H](O)[C@H](O)[C@@H](O)C(c1c[nH]c2ccccc12)c1c[nH]c2ccccc12 |  |  |  | 
8 | > 500 | > 500 | > 500 | > 500 | > 500 | > 500 | > 500 | > 500 | > 500 | > 500 | OC[C@@H](O)[C@@H](O)[C@H](O)[C@H](O)C(c1c[nH]c2ccccc12)c1c[nH]c2ccccc12 |  |  |  | 
9 | > 500 | > 500 | > 500 | > 500 | > 500 | > 500 | > 500 | > 500 | > 500 | > 500 | COc1ccc2[nH]cc(Cc3c[nH]c4ccc(OC)cc34)c2c1 |  |  |  | 
10 | > 500 | > 500 | > 500 | > 500 | > 500 | > 500 | > 500 | > 500 | > 500 | > 500 | c1ccc(-c2[nH]c3ccccc3c2Cc2c(-c3ccccc3)[nH]c3ccccc23)cc1 |  |  |  | 
11 | > 500 | > 500 | > 500 | > 500 | > 500 | > 500 | > 500 | > 500 | > 500 | > 500 | Cc1[nH]c2ccccc2c1Cc1c(C)[nH]c2ccccc12 |  |  |  | 
12 | 250 (≈ 692 µM) | 250 (≈ 692 µM) | 125 (≈ 346 µM) | 250 (≈ 692 µM) | 500 (≈ 1380 µM) | 125 (≈ 346 µM) | 31.2 (≈ 86.3 µM) | 31.2 (≈ 86.3 µM) | 125 (≈ 346 µM) | 250 (≈ 692 µM) | c1ccc2c(C(c3c[nH]c4ccccc34)c3c[nH]c4ccccc34)c[nH]c2c1 | 20 |  |  | Toxic
13 | 250 (≈ 1010 µM) | 250 (≈ 1010 µM) | 125 (≈ 507 µM) | 125 (≈ 507 µM) | 500 (≈ 2030 µM) | 250 (≈ 1010 µM) | 125 (≈ 507 µM) | 125 (≈ 507 µM) | 250 (≈ 1010 µM) | 250 (≈ 1010 µM) | c1ccc2c(Cc3c[nH]c4ccccc34)c[nH]c2c1 [ARUNDINE] | 20 |  |  | 

Row | SMILES | MIC [1] [µg/mL] | MIC [3] [µg/mL] | MIC [4] [µg/mL] | MIC [5] [µg/mL] | MIC [6] [µg/mL] | MIC [7] [µg/mL] | MIC [8] [µg/mL] | MIC [9] [µg/mL] | MIC [10] [µg/mL] | MIC [11] [µg/mL] | hemolysis at 1 h [2] [%] | hemolysis at 1 h, 12.5 ug/mL [12] [%] | hemolysis at 1 h ([13]; human red blood cells, read-out: Activity) [%] | Activity ([13]; erythrocyte, 1 h)
14 | CN[C@@H]1[C@H](O[C@H]2[C@H](O[C@H]3[C@H](O)[C@@H](O)[C@H](N=C(N)N)[C@@H](O)[C@@H]3N=C(N)N)O[C@@H](C)[C@]2(O)C=O)O[C@@H](CO)[C@H](O)[C@H]1O [STREPTOMYCIN] | 12.5 (≈ 21.5 µM) | 1.5 (≈ 2.58 µM) | 0.75 (≈ 1.29 µM) | 6.25 (≈ 10.7 µM) | 1.5 (≈ 2.58 µM) | 6.25 (≈ 10.7 µM) | 1.25 (≈ 2.15 µM) | 0.75 (≈ 1.29 µM) | 3.15 (≈ 5.42 µM) | 1.25 (≈ 2.15 µM) |  |  |  | 
